The values that follow come from paper PMC4319022 (The Journal of Biological Chemistry, 2014).

Each structure is given as a SMILES string. Like-named read-outs stand apart in the source and are kept apart here.

Experiment [1] concerns the target T1, human α7 nAChR (Homo sapiens, UniProt P36544).
T1 construct: gene CHRNA7; full-length subunit cDNA in pSP64GL, cRNA injected in Xenopus laevis oocytes, homopentamer
In words: two-electrode voltage clamp, Xenopus oocytes. The format is cell-based. An excerpt: two-electrode voltage clamp, Xenopus oocytes on human α7 nAChR
Background: In two-electrode clamp one electrode senses voltage and the other passes current.

The target in experiment [2] is T1, human α7 nAChR. Put plainly: two-electrode voltage clamp, Xenopus oocytes. The format is cell-based. This is another data set of the same source.

The term EC50 denotes the midpoint of the concentration-response curve. The IC50 is the concentration that inhibits the measured activity by half. Low readings indicate higher potency, high ones lower potency.

T1 sequence (P36544 23-502): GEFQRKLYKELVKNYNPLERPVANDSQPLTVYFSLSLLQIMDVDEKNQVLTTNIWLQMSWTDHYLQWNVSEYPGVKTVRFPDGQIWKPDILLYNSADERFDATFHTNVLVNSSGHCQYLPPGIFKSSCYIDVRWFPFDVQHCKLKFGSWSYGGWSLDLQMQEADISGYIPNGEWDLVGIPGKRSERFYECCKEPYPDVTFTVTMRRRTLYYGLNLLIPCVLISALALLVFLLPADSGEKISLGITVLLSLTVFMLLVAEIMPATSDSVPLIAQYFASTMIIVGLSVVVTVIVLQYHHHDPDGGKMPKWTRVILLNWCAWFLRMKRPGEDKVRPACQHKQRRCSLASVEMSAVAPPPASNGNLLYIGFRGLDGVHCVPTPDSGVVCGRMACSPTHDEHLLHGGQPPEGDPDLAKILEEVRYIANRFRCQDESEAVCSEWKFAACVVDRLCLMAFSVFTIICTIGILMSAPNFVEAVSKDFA

As for `Cc1cc(C)c(C2Nc3ccc(S(N)(=O)=O)cc3C3C=CCC32)c(C)c1C` (stereo not drawn) [2,3,4,6MP-TQS, cis-trans-4-(2,3,4,6-tetramethylphenyl)-3a,4,5,9b-tetrahydro-3H-cyclopenta[c]quinoline-8-sulfonamide], at human α7 nAChR [1] (read-out: EC50), the EC50 was found to be 9.1 ± 2 µM.
Same read-out and setting: for `Cc1ccc(C2Nc3ccc(S(N)(=O)=O)cc3C3C=CCC32)c(C)c1C` (stereo not drawn) [2,3,4MP-TQS, cis-cis-4-(2,3,4-trimethylphenyl)-3a,4,5,9b-tetrahydro-3H-cyclopenta[c]quinoline-8-sulfonamide] the value was 9.8 ± 0.8 µM.
In the case of `Cc1cc(C)c(C)c(C2Nc3ccc(S(N)(=O)=O)cc3C3C=CCC32)c1` (stereo not drawn) [2,3,5MP-TQS, cis-cis-4-(2,3,5-trimethylphenyl)-3a,4,5,9b-tetrahydro-3H-cyclopenta[c]quinoline-8-sulfonamide], the EC50 at human α7 nAChR [1] (read-out: EC50) turned out to be 3.9 ± 0.7 µM.
Take `Cc1ccc(C)c(C2Nc3ccc(S(N)(=O)=O)cc3C3C=CCC32)c1C` (stereo not drawn) [2,3,6MP-TQS, cis-trans-4-(2,3,6-trimethylphenyl)-3a,4,5,9b-tetrahydro-3H-cyclopenta[c]quinoline-8-sulfonamide]: the midpoint of inhibition at human α7 nAChR [2], the IC50, lay at 23 ± 2.8 µM.
The compound `Cc1cc(C)c(C2Nc3ccc(S(N)(=O)=O)cc3C3C=CCC32)c(C)c1` (stereo not drawn) [2,4,6MP-TQS, cis-trans-4-mesityl-3a,4,5,9b-tetrahydro-3H-cyclopenta[c]quinoline-8-sulfonamide] had an IC50 against human α7 nAChR [2] of 5.2 ± 0.8 µM.
Take `Cc1ccc(C2Nc3ccc(S(N)(=O)=O)cc3C3C=CCC32)c(C)c1` (stereo not drawn) [2,4MP-TQS, cis-cis-4-(2,4-dimethylphenyl)-3a,4,5,9b-tetrahydro-3H-cyclopenta[c]quinoline-8-sulfonamide]: on human α7 nAChR [1] (read-out: EC50), the EC50 was 11 ± 1 µM.
Consider `Cc1cccc(C)c1C1Nc2ccc(S(N)(=O)=O)cc2C2C=CCC21` (stereo not drawn) [2,6MP-TQS, cis-trans-4-(2,6-dimethylphenyl)-3a,4,5,9b-tetrahydro-3H-cyclopenta[c]quinoline-8-sulfonamide], for which the half-maximal inhibitory concentration (IC50) on human α7 nAChR [2] was determined as 43 ± 14 µM.
Regarding `Cc1ccccc1C1Nc2ccc(S(N)(=O)=O)cc2C2C=CCC21` (stereo not drawn) [2MP-TQS, cis-cis-4-o-tolyl-3a,4,5,9b-tetrahydro-3H-cyclopenta[c]quinoline-8-sulfonamide], the 50% effective concentration (EC50) on human α7 nAChR [1] (read-out: EC50) came out at 16 ± 1.3 µM.
At human α7 nAChR [1] (100 μM, allosteric agonist, relative to 3 mM acetylcholine, -60 mV), `Cc1ccc(C2Nc3ccc(S(N)(=O)=O)cc3C3C=CCC32)cc1C` (stereo not drawn) [3,4MP-TQS, cis-cis-4-(3,4-dimethylphenyl)-3a,4,5,9b-tetrahydro-3H-cyclopenta[c]quinoline-8-sulfonamide] registered an Imax of 7.8 ± 3.0 fold effect.
As for `Cc1cc(C)cc(C2Nc3ccc(S(N)(=O)=O)cc3C3C=CCC32)c1` (stereo not drawn) [3,5MP-TQS, cis-cis-4-(3,5-dimethylphenyl)-3a,4,5,9b-tetrahydro-3H-cyclopenta[c]quinoline-8-sulfonamide], the EC50 on human α7 nAChR [1] (read-out: EC50) came to 3.7 ± 1.2 µM.
With `Cc1cccc(C2Nc3ccc(S(N)(=O)=O)cc3C3C=CCC32)c1` (stereo not drawn) [3MP-TQS, cis-cis-4-m-tolyl-3a,4,5,9b-tetrahydro-3H-cyclopenta[c]quinoline-8-sulfonamide], the Fold potentiation on human α7 nAChR [1] (allosteric potentiation (type II PAM) of 100 μM acetylcholine, maximal PAM concentration (100 μM, Figure 4), -60 mV) turned out to be 22 ± 2.1 fold.
Regarding `Cc1ccc(C2Nc3ccc(S(N)(=O)=O)cc3C3C=CCC32)cc1` (stereo not drawn) [4MP-TQS, cis-cis-4-p-tolyl-3a,4,5,9b-tetrahydro-3H-cyclopenta[c]quinoline-8-sulfonamide], at human α7 nAChR [1] (read-out: EC50), the EC50 was determined as 27 ± 3.1 µM.
Regarding `Cc1c(C)c(C)c(C2Nc3ccc(S(N)(=O)=O)cc3C3C=CCC32)c(C)c1C` (stereo not drawn) [PentaMP-TQS, cis-trans-4-(2,3,4,5,6-pentamethylphenyl)-3a,4,5,9b-tetrahydro-3H-cyclopenta[c]quinoline-8-sulfonamide], the EC50 at human α7 nAChR [1] (allosteric potentiation (type I PAM) of 100 μM acetylcholine, 10 s preapplication, -60 mV, bell-shaped curve, unreliable) is 0.55 ± 0.36 µM.
